Columns and labels:
HIV-IIIb = assay: Test A: Antiviral assay in MT4 cells; assay type: cell-based, HIV-1; conditions: Human immunodeficiency virus 1, IIIB, MT4, 120 h, read-out: % inhibition at 2 μM, percent inhibition of virus-induced cell killing, from dose response curve at 2 uM drug; MT-4 cells infected with HIV-IIIb, 5 days, CellTiter-Glo
in vitro = conditions: human, uninfected MT-4 cells, CC50 (nM), same protocol as Test A, CellTiter-Glo
In short: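 Cytoprotection read-out: CellTiter-Glo chemiluminescence after 5 days at 37 °C of HIV-IIIb-infected MT-4 cells (m.o.i. 0.003) with compound in 10-point 3-fold dilutions, quadruplicate, 10% FBS. Cytotoxicity (CC50) measured identically without virus.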

| Compound | inhibition at 2 µM (HIV-IIIb) | CC50 at 5 days (in vitro) |
| --- | --- | --- |
| COCc1ccc(-c2cccnc2[C@H](Cc2cc(F)cc(F)c2)NC(=O)Cn2nc(C(F)F)c3c2C(F)(F)C2CC32)cc1 (stereo partly drawn) [Example 195, 2-(3-(difluoromethyl)-5,5-difluoro-3b,4,4a,5-tetrahydro-1H-cyclopropa[3,4]cyclopenta[1,2-c]pyrazol-1-yl)-N—((S)-2-(3,5-difluorophenyl)-1-(3-(4-(methoxymethyl)phenyl)pyridin-2-yl)ethyl)acetamide] | 85% | 23000 nM |
| NC(=O)c1cc(-c2cccnc2[C@H](Cc2cc(F)cc(F)c2)NC(=O)Cn2nc(C(F)(F)F)c3c2C(=O)CCC3)ccc1F [Example 273, (S)-5-(2-(2-(3,5-difluorophenyl)-1-(2-(7-oxo-3-(trifluoromethyl)-4,5,6,7-tetrahydro-1H-indazol-1-yl)acetamido)ethyl)pyridin-3-yl)-2-fluorobenzamide] | 10% | 29600 nM |
| NC(=O)c1cccc(-c2cccnc2[C@H](Cc2cc(F)cc(F)c2)NC(=O)Cn2ccc3cnc(Cl)nc32)c1 [Example 266C, (S)-3-(2-(1-(2-(2-chloro-7H-pyrrolo[2,3-d]pyrimidin-7-yl)acetamido)-2-(3,5-difluorophenyl)ethyl)pyridin-3-yl)benzamide] | 0% | 51900 nM |
| NC(=O)c1cc(-c2cccnc2[C@H](Cc2cc(F)cc(F)c2)NC(=O)[C@@H]2C[C@@H](OCc3ccccc3)CN2)ccc1F [Example 157, (2S,4R)-4-(benzyloxy)-N—((S)-1-(3-(3-carbamoyl-4-fluorophenyl)pyridin-2-yl)-2-(3,5-difluorophenyl)ethyl)pyrrolidine-2-carboxamide] | 10% | 38300 nM |
| O=C(Cc1c[nH]c2ccc(O)cc12)N[C@@H](Cc1cc(F)cc(F)c1)c1ncccc1-c1ccccc1 [Example 402, (S)—N-(2-(3,5-difluorophenyl)-1-(3-phenylpyridin-2-yl)ethyl)-2-(5-hydroxy-1H-indol-3-yl)acetamide] | 92% | 24800 nM |
| O=C(Cn1nc(C(F)F)c2c1C(F)(F)C1CC21)N[C@@H](Cc1cc(F)cc(F)c1)c1ncccc1-c1ccc2nccnc2c1 (stereo partly drawn) [Example 415, (S)—N-(1-(3-(quinoxalin-6-yl)-pyridin-2-yl)-2-(3,5-difluorophenyl)ethyl)-2-(3-(difluoromethyl)-5,6-dihydro-4,5-(methano)-6,6-difluoro-cyclopenta[c]pyrazol-1(4H)-yl)acetamide] | 39% | 38000 nM |
| NC(=O)c1cccc(-c2cccnc2[C@H](Cc2cc(F)cc(F)c2)NC(=O)Cn2nc(C(F)(F)F)c3c2COCC3)c1 [Example 144, (S)-3-(2-(2-(3,5-difluorophenyl)-1-(2-(3-(trifluoromethyl)-4,5-dihydropyrano[3,4-c]pyrazol-1(7H)-yl)acetamido)ethyl)pyridin-3-yl)benzamide] | 89% | > 53000 nM |
| CCOCc1cn(CC(=O)N[C@@H](Cc2cc(F)cc(F)c2)c2ncccc2-c2ccc(F)c(C(N)=O)c2)nc1C(F)(F)F [Example 330, (S)-5-(2-(2-(3,5-difluorophenyl)-1-(2-(4-(ethoxymethyl)-3-(trifluoromethyl)-1H-pyrazol-1-yl)acetamido)ethyl)pyridin-3-yl)-2-fluorobenzamide] | 3% | 29300 nM |
| O=C(Cn1nc(C(F)F)c2c1C(F)(F)C1CC21)N[C@@H](Cc1cc(F)cc(F)c1)c1ncccc1-c1cnc2nccnc2c1 (stereo partly drawn) [Example 85, (S)—N-(1-(3-(pyrido[2,3-b]pyrazin-7-yl)-pyridin-2-yl)-2-(3,5-difluorophenyl)ethyl)-2-(3-(difluoromethyl)-5,6-dihydro-4,5-(methano)-6,6-difluoro-cyclopenta[c]pyrazol-1(4H)-yl)acetamide] | 9% | 43000 nM |
| O=C(Cn1nc(C(F)F)c2c1C(F)(F)C1CC21)N[C@@H](Cc1cc(F)cc(F)c1)c1ncncc1-c1cnc2[nH]ncc2c1 (stereo partly drawn) [Example 176C, N—((S)-1-(5-(1H-pyrazolo[3,4-b]pyridin-5-yl)pyrimidin-4-yl)-2-(3,5-difluorophenyl)ethyl)-2-(3-(difluoromethyl)-5,5-difluoro-3b,4,4a,5-tetrahydro-1H-cyclopropa[3,4]cyclopenta[1,2-c]pyrazol-1-yl)acetamide] | 59% | 46500 nM |
| CC(C)(C)OC(=O)N1C[C@H](OCc2ccccc2)C[C@H]1C(=O)N[C@@H](Cc1cc(F)cc(F)c1)c1ncccc1-c1ccc(F)c(C(N)=O)c1 [Example 145, (2S,4R)-tert-butyl 4-(benzyloxy)-2-((S)-1-(3-(3-carbamoyl-4-fluorophenyl)pyridin-2-yl)-2-(3,5-difluorophenyl)ethylcarbamoyl)pyrrolidine-1-carboxylate] | 0% | 22400 nM |
| CC(C(=O)N[C@@H](Cc1cc(F)cc(F)c1)c1ncccc1-c1ccc(F)c(C(N)=O)c1)n1nc(C(F)(F)F)cc1C1CC1 (stereo partly drawn) [Example 519, 5-(2-((1S)-1-(2-(5-cyclopropyl-3-(trifluoromethyl)-1H-pyrazol-1-yl)propanamido)-2-(3,5-difluorophenyl)ethyl)pyridin-3-yl)-2-fluorobenzamide] | 65% | 20300 nM |
| Cc1ccccc1-c1ccnc(C(Cc2cc(F)cc(F)c2)NC(=O)Cn2nc(C(F)(F)F)c3c2CCCC3)n1 (stereo not drawn) [Example 12, N-(2-(3,5-difluorophenyl)-1-(4-o-tolylpyrimidin-2-yl)ethyl)-2-(3-(trifluoromethyl)-4,5,6,7-tetrahydro-1H-indazol-1-yl)acetamide] | 0% | 8980 nM |
| CCc1cc(C(F)(F)F)nn1CC(=O)N[C@@H](Cc1cc(F)cc(F)c1)c1ncccc1-c1ccc(F)c(C(N)=O)c1 [Example 461, (S)-5-(2-(2-(3,5-difluorophenyl)-1-(2-(5-ethyl-3-(trifluoromethyl)-1H-pyrazol-1-yl)acetamido)ethyl)pyridin-3-yl)-2-fluorobenzamide] | 25% | 32000 nM |
| Cc1nn(CC(=O)N[C@@H](Cc2cc(F)cc(F)c2)c2ncccc2-c2cccc(C(N)=O)c2)c2cc(O)ccc12 [Example 306C, (S)-3-(2-(2-(3,5-difluorophenyl)-1-(2-(6-hydroxy-3-methyl-1H-indazol-1-yl)acetamido)ethyl)pyridin-3-yl)benzamide] | 10% | 41600 nM |
| CN(C)C(=O)c1cccc(-c2cccnc2[C@H](Cc2cc(F)cc(F)c2)NC(=O)Cc2c[nH]c3ccc(O)cc23)c1 [Example 48, (S)-3-(2-(2-(3,5-difluorophenyl)-1-(2-(5-hydroxy-1H-indol-3-yl)acetamido)ethyl)pyridin-3-yl)-N,N-dimethylbenzamide] | 74% | > 53000 nM |
| NC(=O)c1cc(-c2cccnc2[C@H](Cc2cc(F)cc(F)c2)NC(=O)Cn2c3c(c4ccccc42)CCCC3)ccc1F [Example 563, (S)-5-(2-(2-(3,5-difluorophenyl)-1-(2-(3,4-dihydro-1H-carbazol-9(2H)-yl)acetamido)ethyl)pyridin-3-yl)-2-fluorobenzamide] | 62% | 27000 nM |
| O=C(Cn1nc(C(F)F)c2c1C(F)(F)C1CC21)N[C@@H](Cc1cc(F)cc(F)c1)c1ncccc1-c1ccc(NC(=O)NC2CC2)cc1 (stereo partly drawn) [Example 114, (S)—N-(1-(3-(4-(3-cyclopropylureido)phenyl)-pyridin-2-yl)-2-(3,5-difluorophenyl)ethyl)-2-(3-(difluoromethyl)-5,6-dihydro-4,5-(methano)-6,6-difluoro-cyclopenta[c]pyrazol-1(4H)-yl)acetamide] | 32% | > 53200 nM |
| O=C(Cn1nc(C(F)(F)F)c2c1CC1CC21)N[C@@H](Cc1cc(F)cc(F)c1)c1ncccc1-c1cnc2[nH]ccc2c1 (stereo partly drawn) [Example 595, N—((S)-1-(3-(1H-pyrrolo[2,3-b]pyridin-5-yl)pyridin-2-yl)-2-(3,5-difluorophenyl)ethyl)-2-(3-(trifluoromethyl)-3b,4,4a,5-tetrahydro-1H-cyclopropa[3,4]cyclopenta[1,2-c]pyrazol-1-yl)acetamide] | 99% | 12700 nM |
| NC(=O)c1cc(-c2cccnc2[C@H](Cc2cc(F)cc(F)c2)NC(=O)Cn2nc(C(F)(F)F)c3c2C2CC2CC3)ccc1F (stereo partly drawn) [Example 342C, 5-(2-((1S)-2-(3,5-difluorophenyl)-1-(2-(3-(trifluoromethyl)-5,5a,6,6a-tetrahydrocyclopropa[g]indazol-1(4H)-yl)acetamido)ethyl)pyridin-3-yl)-2-fluorobenzamide] | 119% | 13700 nM |
| COc1ccc(-c2cccnc2[C@@H](Cc2ccccc2)NC(=O)Cn2nc(C(F)(F)F)c3c2CCCC3)cc1 [Example 23, (R)—N-(1-(3-(4-methoxyphenyl)pyridin-2-yl)-2-phenylethyl)-2-(3-(trifluoromethyl)-4,5,6,7-tetrahydro-1H-indazol-1-yl)acetamide] | 0% | 13800 nM |
| O=C(Cc1c[nH]c2ccc(O)cc12)N[C@@H](Cc1cc(F)cc(F)c1)c1ncccc1C#CC1CC1 [Example 53, (S)—N-(1-(3-(cyclopropylethynyl)pyridin-2-yl)-2-(3,5-difluorophenyl)ethyl)-2-(5-hydroxy-1H-indol-3-yl)acetamide] | 33% | 28300 nM |
| NC(=O)c1cc(-c2cccnc2[C@H](Cc2cc(F)cc(F)c2)NC(=O)Cc2c[nH]c3ccc(F)cc23)ccn1 [Example 294, (S)-2-(2-(3,5-difluorophenyl)-1-(2-(5-fluoro-1H-indol-3-yl)acetamido)ethyl)-3,4′-bipyridine-2′-carboxamide] | 114% | 20500 nM |
| NC(=O)c1cccc(-c2cccnc2[C@H](Cc2cc(F)cc(F)c2)NC(=O)Cc2cccc(Cl)c2)c1 [Example 510, (S)-3-(2-(1-(2-(3-chlorophenyl)acetamido)-2-(3,5-difluorophenyl)ethyl)pyridin-3-yl)benzamide] | 3% | 35900 nM |

Source: US9540343B2 (Gilead Sciences, Inc., priority 2011, dated 2017)
